Test results from US20090252754A1, “Vaccines containing the hiv tat protein as an adjuvant for the enhancement of cytotoxic t-cell responses” (priority 2003, published 2009).

Tests used:
[1] = tested on: LMP2; assay: LMP2 expression in splenocytes of mice treated i.m. with Tat (Western blot); format: in vivo; conditions: Balb/c mice, 1 μg i.m., 3 consecutive treatments
Description: Equal amounts of proteins were loaded on a 12% SDS-PAGE gel and electroblotted onto Protran nitrocellulose membranes (Schleicher & Schuell, Keene, Hampshire, USA). The blots were probed with antibodies specific for α2, LMP2, LMP7, MECL1, and PA28α subunits (Affinity, Exeter, UK) and developed by enhanced chemiluminescence (ECL, Amersham Pharmacia Biotech, Uppsala, SW).
Animal use was according to national and institutional guidelines. Seven-to-eight week old female Balb/c mice (Nossan, Milan, Italy) were injected with native monomeric biologically active Tat protein (1 μg) resuspended in degassed sterile PBS. Control mice were injected with oxidised Tat (1 μg) or with PBS alone. Samples (100 μl) were given by intramuscular (i.m.) injections in the quadriceps muscles of the posterior legs. Each experimental group consisted of three mice, and the experiment was repeated twice. Mice were boosted at days 11 and 20 after the first injection. Seven days after the last injection, animals were anaesthetised intraperitoneally (i.p.) with 100 μl of isotonic solution containing 1 mg of Inoketan (Virbac, Milan, Italy), and 200 μg Rompun (Bayer, Milan, Italy) and sacrificed to collect spleens. Mononuclear cells from individual spleens were purified using cells strainers, resuspended in PBS containing 20 mM EDTA, and treated with a red blood cells lysis buffer for 4 minutes at room temperature. […]

[2] = tested on: proteasome subunits (α2, LMP2, LMP7, MECL1) in Jurkat cells; assay: Western blot of proteasome subunits in Jurkat cells expressing or treated with Tat, Tat mutants or Tat peptides; format: cell-based, human
Procedure: Jurkat T cells expressing Tat or mutated Tat (referred to as Tat22, wherein a Cys at position 22 is mutated) have previously been described (1). Cells were cultured in a medium supplemented with 800 μg/ml neomycin (Sigma, St. Louise, […].).
Cells were lysed with glass beads as previously described (4). Supernatants were ultracentrifuged for 1 h at 100,000 g and loaded into an affinity column containing a matrix derivatised with the MCP21 mAb specific for the α2 subunit of the proteasome (Affinity, Exeter, UK). Proteasomes were eluted with 25 mM Tris-HCl pH 7.5 containing 2 M NaCl, and 0.5 ml fractions were collected. Homogeneity of the eluted material was confirmed by analysis of an aliquot by SDS 12% PAGE and Coomassie blue staining of the gel. Fractions containing proteasomes were combined and dialysed against 25 mM Tris-HCl pH 7.5. Protein concentration was determined using the BCA method (Pierce Chemical, Rockford, Ill.).
Equal amounts of proteins, or equal amounts of purified proteasomes, were loaded on a 12% SDS-PAGE and electro-blotted onto Protran nitrocellulose membranes (Schleicher & Schuell, Keene, Hampshire, USA). Blots were probed with Abs specific for α2, LMP2 LMP7, MECL1, and PA28α subunits (Affinity), and developed by enhanced chemi-luminescence (ECL, Amersham Pharmacia Biotech, Uppsala, SW).

[3] = tested on: proteasomes purified from MIN-Tat and MIN-0; assay: In vitro degradation of CLG+5 epitope precursor by purified proteasomes (HPLC, IFN-γ ELISPOT of fractions); format: biochemical, human
Procedure: 500 μg of synthetic peptide were incubated with 127 μg of purified proteasomes in 300 μl of buffer (25 mM Tris HCL pH 7.4, 5 mM MgCl2, 500 μM EDTA pH 8.0, 1 mM DTT, 2 mM ATP) at 37° C. At the indicated time points, 60 μl of sample were collected and the reaction was stopped by adding 2 volumes of ethanol at 0° C.
Digestion mixtures were centrifuged at 5000 rpm for 5 minutes. 80 μl of supernatant were collected and peptide digests were separated by reverse-phase HPLC at the flow rate of 0.7 ml/min, as follows: linear gradient of 0-100% of solution B (acetonitrile 100% with 0.1% TFA) for 25 min, followed by linear gradient of 0-100% for solution A (water 100% with 0.1% TFA) for 5 min. The fractionation was simultaneously monitored at 210 and 280 nm. […]
Plates were incubated for 24 h at 37° C., 5% CO2 and then washed three times with PBS and three times with washing buffer (PBS 0.05% Tween 20) before 100 μl of biotinylated anti-IFN-γ MAb (1 μg/ml; Endogen, Woburn, Mass.) were added, and incubated at 37° C. for 60 min. […] Wells were washed, and individual IFN-γ producing cells were detected using ABC chromogen kit (Sigma, Saint Louise, Mo.). IFN-γ-secreting T cells were counted by direct visualisation. The number of specific IFN-γ-secreting T cells, expressed as spot-forming cells (SFC) per 10^6 cells, was calculated by subtracting the negative control value. […]

[4] = endogenous expression of Tat in Jurkat cells

Tat: HIV-1 Tat protein from HTLV type IIIB isolate, expressed in E. Coli or endogenously in cells; wild type SEQ ID NO 284
LMP2 expression in splenocytes [1]: down-regulation | LMP2 expression in total cell lysates ([2]; Jurkat cells treated for 24 h with 0.1 μg/ml): induced down-regulation | expression of LMP2 subunit from purified proteasomes ([2]; Jurkat cells, exogenous native Tat, 24 h, 0.1-1 μg/ml): maximal down-modulation | expression of LMP2 [2, 4]: down-regulation | expression of LMP7 [2, 4]: up-regulation | expression of MECL1 [2, 4]: up-regulation | degradation of the CLG+5 peptide precursor ([3]; proteasomes from Tat-expressing cells (MIN-Tat) vs empty vector (MIN-0)): more efficiently | generation of the immunogenic CLG peptide ([3]; proteasomes from Tat-expressing cells, 120 min digests, CLG-specific CTL ELISPOT): generate with more efficiency
